Assay results reported in patent US10674723B2, “1,8-bis(Schiff base)-p-menthane derivatives as well as preparation method and applications thereof” (INSTITUTE OF CHEMICAL INDUSTRY OF FOREST PRODUCTS, CAF, priority 2016, dated 2020).

System: annual ryegrass
Test: Pre-emergence herbicidal activity by the Petri dish seed germination method
Assay type: in vivo
Conditions: 25° C., 5 days
Description: Step 2: accurately weigh 1 mmol of the 1,8-bis(Schiff base)-p-menthane derivative and dissolve it in 0.25 mL DMF, and then add a drop of Tween 80 into it; after the product is fully dissolved, the resulting solution is transferred to a 100 mL volumetric flask and is diluted with distilled water to the mark to obtain a solution having a concentration of 10 mmol/L as the mother liquor. Using the two-fold dilution method, a series of diluted sample solutions with different concentrations are prepared with the mother liquor (the concentrations of DMF and Tween 80 in the diluted solutions should be consistent with those in the mother liquor).
The annual ryegrass seeds are soaked with distilled water for 15 h. Place a piece of filter paper on the bottom of a Petri dish (φ9 cm), add 10 mL of the above sample solution having the corresponding concentration into it, respectively, and add the same amount of the mixture of water, DMF and Tween 80 into such a Petri dish as a blank control. Place 10 grains of seeds into each dish. The dishes are then placed in an incubator and cultured at 25° C. for 5 days. The experimental data are analyzed with DPS software, and the inhibition rate of the 1,8-bis(Schiff base)-p-menthane derivative on the root or stem growth of ryegrass seeds is calculated as follows:
[formula] Where: y is the inhibition rate on the root or stem growth, x2 is the root length or stem length of the control sample, and x1 is the root length or stem length of the sample.
1 mmol of the 1,8-bis(2-hydroxyphenylimine)-p-menthane was accurately weighed and dissolved in 0.25 mL DMF; a drop of Tween 80 was then added into it; after the product was fully dissolved, the resulting solution was transferred to a 100 mL volumetric flask and was diluted with distilled water to the mark to obtain a solution having a concentration of 10 mmol/L as the mother liquor. Using the two-fold dilution method, a series of diluted sample solutions with different concentrations (5 mmol/L, 2.5 mmol/L, 1.25 mmol/L, 0.625 mmol/L and 0.3125 mmol/L; the concentrations of DMF and Tween 80 in the diluted solutions should be consistent with those in the mother liquor) were prepared with the mother liquor.
The annual ryegrass seeds were soaked with distilled water for 15 h. Placed a piece of filter paper on the bottom of a Petri dish (φ 9 cm), added 10 mL of the above sample solution having the corresponding concentration into it, respectively, and added the same amount of the mixture of water, DMF and Tween 80 into such a Petri dish as a blank control. 10 grains of seeds were placed into each of the dishes. The dishes were then placed in an incubator and cultured at 25° C. for 5 days.

CC1(N=Cc2c(Cl)cccc2Cl)CCC(C(C)(C)N=Cc2c(Cl)cccc2Cl)CC1 (stereo not drawn) [1,8-bis(2,6-dichlorophenylimine)-p-menthane]
100.0%: inhibition rate on the root growth of ryegrass seeds (0.3125 mmol/L solution) | inhibition rate on the stem growth of ryegrass seeds (0.3125 mmol/L solution) | inhibition rate on the root growth of ryegrass seeds (0.625 mmol/L solution) | inhibition rate on the stem growth of ryegrass seeds (0.625 mmol/L solution) | inhibition rate on the root growth of ryegrass seeds (1.25 mmol/L solution) | inhibition rate on the stem growth of ryegrass seeds (1.25 mmol/L solution) | inhibition rate on the root growth of ryegrass seeds (2.5 mmol/L solution) | inhibition rate on the stem growth of ryegrass seeds (2.5 mmol/L solution) | inhibition rate on the root growth of ryegrass seeds (5 mmol/L solution) | inhibition rate on the stem growth of ryegrass seeds (5 mmol/L solution) | inhibition rate on the root growth of ryegrass seeds (10 mmol/L solution) | inhibition rate on the stem growth of ryegrass seeds (10 mmol/L solution)
